Marks after values point to notes of the source that are not given here.
Test system: CD34^+ cells
Assay: Cell phenotyping of CD34+ liquid cultures by flow cytometry (CD34, CD33, CD15, CD41)
Format: cell-based, human
Conditions: day 14; seeded at 50,000 cells/well; ARP 2 nM, cortisol 1.2 μM, ASP 2 nM, SCF 50 ng/ml, AS1 20 pM, PBAN 2 nM
Excerpt: Cell Source: UCB was collected, following informed consent of the parents and with the approval of the Sourasky Medical Center Ethics Committee, as previously described [Grisaru et al. (1999a) Am. J. Obstet. Gynecol, 180, 1240–1243]. Following 1:1 (v/v) dilution in Iscove's modified Dulbecco medium (IMDM, Beit Haemek, Israel), mononuclear cells were separated using 3% gelatin (Difco, Detroit, Mich.) and Ficoll-Hypaque gradients (<1.077 g/ml; Pharmacia, Uppsala, Sweden) [Pick et al. (1998) Br. J. Haematol. 103, 639–50]. CD34^+ cells were enriched using CD34 immunoglobulin-coated magnetic beads (CD34 progenitor cell selection system, Dynal, Norway).CD34^+ cells analysis was performed by flow cytometry (Becton Dickinson Immunocytochemistry System Inc., San Jose, Calif.), using CD34-PE (Becton Dickinson Immunocytometry System, Inc.) and CD45-FITC (Dako, Glostrup, Denmark) monoclonal antibodies. […] Liquid Cultures: UCB CD34^+ cells were set for liquid cultures at a concentration of 10^5/mL in IMDM, containing 10% autologous plasma, 2 mM L-glutamine (Sigma Chemical Co., St Louis, Mo.), penicillin ([…]), streptomycin ([…]), amphotericin B (2×10^−5 M) (Sigma Chemical Co.), and heparin (20 IU/mL, Gibco, Grand Island, N.Y.), all in a fully humidified atmosphere at 37° C. and 5% CO2. The following elements were added where noted: • 1. […] Endothlial Growth factors: Epidermal growth factor (EGF 10 ng/ml, Sigma Chemical Co.), basic Fibroblast growth factor (bFGF 20 ng/ml, Sigma Chemical Co.) incubated in a serum free medium (SFM) for 48 hr. • 3. Stress mimicking conditions: Hydrocortisone sodium succinate (Abic Ltd., Netanya, Israel) at concentrations equivalent to normal, intermediate and stress serum cortisol levels (0.1, 0.6 and 1.2 μM, respectively (De Vroede et al., Arch. Des. […] Antisense oligonucleotides: 3′-terminal 2′-O-Methylated 15- and 20-mer oligodeoxynucleotides in the antisense (AS) orientation, targeted against the common sequence domain in human AChEmRNA and BuChE mRNA, as control, […], as detailed elsewhere [Grisaru et al. (1999b) Mol. Cell. Biol. 19, 788–95]. • 5. AChE C-terminal peptides: The following C-terminal peptides of the AChE synaptic (ASP, also denoted SEQ ID: No. 2) and readthrough (ARP, also denoted SEQ ID: No. 1) isoforms were synthesized using a 433A peptide synthesizer (PE Applied Biosystems, Inc., Norwalk, Conn.). • ASP: 1-[…]-40, also denoted as SEQ ID: No. 2. • ARP: 1-[…]-26, also denoted as SEQ ID: No. 1.
Culture Analyses: Twenty-four hr liquid cultures served for cytochemical staining, in situ hybridization, and cell proliferation assay by 5-bromo-2′-deoxy-Uridine (BrdU) incorporation [Grisaru et al. (1999b) id ibid.]. Twenty-eight day liquid cultures were sampled every 6–8 days for viable cell counting (using trypan blue dye exclusion), cell phenotyping (CD34^+, CD33^+ and CD41^+ quantification using flow cytometry, with CD34-PE, CD33-FITC (Immunotech/Coulter, Hialeah, Fla.), CD41-FITC (Immunoquality Products, Groningen, Netherlands) and CD45-FITC monoclonal antibodies), and growth of progenitor colony (granulocyte-macrophage and megakaryocytic), using previously described techniques (Pick et al. (1998) id ibid.). […] 11, 1049–57]. Nuclear staining w with 4′,6-diamidino-2- phenylindole [DAPI, see e.g., Peterson et al. (1999) Genetics 152, 427–439].

ASP (DTLDEAERQWKAEFHRWSSYMVHWKNQFDHYSKQDRCSDL)
CD33^+ (early myeloids): 10.0 cells per culture × 10^−3
CD33^+ and CD15^+ (total myeloids): 13.0 cells per culture × 10^−3
CD34^+ (early progenitors): 7.2 cells per culture × 10^−3
CD41^+ (megakaryocytes): 4.6^b cells per culture × 10^−3

— patent US7067486B2, “Acetylcholinesterase-derived peptides and uses thereof” (priority 1999, dated 2006)
